One test relates to MT2. Nature of the test: Concentration required to inhibit 50% of host cell replication in MT-2 cells used against HIV studies. Type of test: functional, cell-based. As to conditions: Homo sapiens.
The subject of the next test is Vero. In words: Concentration required to inhibit 50% of host cell replication in Vero cell used against HSV-1 and HSV-2 studies. The format is functional, cell-based. As to conditions: Chlorocebus sabaeus.
The subject of a further test is Human alphaherpesvirus 2. In words: Concentration required to inhibit 50% of HSV-2 replication. The format is functional, organism-based.
The subject of a further test is B16-F10. In words: Concentration required to inhibit 50% of B16F10 cell replication, tested up to a concentration of 100 uM. Type of test: functional, cell-based. As to conditions: Mus musculus.
Another test concerns Hepatitis B virus. In words: Concentration required to inhibit 50% of Hepatitis B virus replication. The format is functional, organism-based.
The test system of a further test is CCRF-CEM. In words: Concentration required to inhibit 50% of CCRF-CEM cell replication, tested up to a concentration of 100 uM. Type of test: functional, cell-based. Conditions: Homo sapiens.
For the next test, the system named is P388. Nature of the test: Concentration required to inhibit 50% of P388 cell replication, tested up to a concentration of 100 uM. Conditions: Mus musculus. The format is functional, cell-based.
The next test concerns Human alphaherpesvirus 1. Nature of the test: Concentration required to inhibit 50% of HSV-1 replication. Type of test: functional, organism-based.
For the next test, the system named is HepG2. Nature of the test: Concentration required to inhibit 50% of host cell replication in human hepatoma (2.2.15) cells used against HBV studies. Type of test: functional, cell-based.
A further test has as its system L1210. In words: Concentration required to inhibit 50% of leukemia L1210 cell replication, tested up to a concentration of 100 uM. The format is functional, cell-based. As to conditions: Mus musculus.
In test [1] the test system is Human immunodeficiency virus 1. Nature of the test: Concentration required to inhibit 50% of HIV-IIIB virus replication. The format is functional, organism-based.

In general, IC50 refers to the concentration at which inhibition is half-maximal. One may read the EC50 as the midpoint of the concentration-response curve.

`Cc1nn(C[C@@H]2CO[C@H](CO)O2)c(=O)[nH]c1=O`: the IC50 in the test with MT2 is above 100 µM; in the test on Vero, above 50 µM; with HepG2, above 50 µM. For the same molecule, the EC50 is above 50 µM in the test with Human alphaherpesvirus 2; above 100 µM in the test with B16-F10; above 20 µM in the test with Hepatitis B virus; above 100 µM in the test on CCRF-CEM; above 100 µM in the test on P388; above 50 µM in the test on Human alphaherpesvirus 1. Also, the EC50 (in the test with L1210; in test [1]) was above 100 µM each time.
As to `Nc1ncn(C[C@H]2CO[C@@H](CO)O2)c(=O)n1`, the values for the IC50 in the test on MT2, with Vero and in the test with HepG2 were 32 µM, 30 µM and 27 µM, respectively. Further, the EC50 in the test on Human alphaherpesvirus 2 is above 50 µM; in the test on B16-F10 it was 60 µM; in the test on Hepatitis B virus it was 6.3 µM; in the test with CCRF-CEM, 80 µM; in the test with P388 it was 70 µM; with Human alphaherpesvirus 1, above 50 µM. Moreover, the EC50 in the test with L1210 was found to be 90 µM; in [1], 1 µM.
Regarding `Cc1nn(C[C@@H]2CO[C@@H](CO)O2)c(=O)[nH]c1=O`, the IC50 in the test on MT2 is above 100 µM; in the test on Vero it was above 50 µM; with HepG2, above 50 µM. Also, the EC50 in the test with Human alphaherpesvirus 2 was above 50 µM; in the test on B16-F10, above 100 µM; with Hepatitis B virus, above 20 µM; in the test on CCRF-CEM it was above 100 µM; with P388, above 100 µM; with Human alphaherpesvirus 1, above 50 µM. Further, the EC50 (in the test with L1210; in test [1]) was above 100 µM in each case.
With `Nc1ncn(C[C@@H]2CO[C@@H](CO)O2)c(=O)n1`, the IC50 was found to be 27 µM with MT2, 28 µM with Vero and 25 µM with HepG2. Also, the half-maximal effective concentration (EC50) in the test with Human alphaherpesvirus 2 is above 50 µM; with B16-F10, 80 µM; in the test with Hepatitis B virus, above 20 µM; with CCRF-CEM, 70 µM; with P388, 70 µM; in the test with Human alphaherpesvirus 1, above 50 µM. Moreover, the concentration giving a half-maximal response (EC50) in the test with L1210 is 80 µM; in test [1], above 100 µM.
As to `Nc1ncn(C[C@@H]2CO[C@H](CO)O2)c(=O)n1`, the IC50 with MT2 was 17 µM; with Vero, 12 µM; in the test on HepG2, 17 µM. Moreover, the EC50 is above 50 µM with Human alphaherpesvirus 2; 70 µM with B16-F10; 0.6 µM in the test on Hepatitis B virus; 20 µM in the test with CCRF-CEM; 90 µM in the test with P388; 32 µM in the test with Human alphaherpesvirus 1. Further, the EC50 in the test on L1210 is 70 µM; in test [1], 5 µM.
As for `Cc1nn(C[C@H]2CO[C@@H](CO)O2)c(=O)[nH]c1=O`, the IC50 is above 100 µM with MT2, above 50 µM in the test with Vero and above 50 µM in the test with HepG2. For the same molecule, the EC50 in the test on Human alphaherpesvirus 2 was above 50 µM; in the test with B16-F10, above 100 µM; in the test with Hepatitis B virus, above 20 µM; with CCRF-CEM, above 100 µM; in the test with P388, above 100 µM; in the test on Human alphaherpesvirus 1, above 50 µM. Besides, the EC50 (with L1210; in test [1]) was above 100 µM in each case.
Regarding `Cc1nn(C[C@H]2CO[C@H](CO)O2)c(=O)[nH]c1=O`, the IC50 in the test on MT2 was above 100 µM; with Vero it was above 50 µM; with HepG2, above 50 µM. Besides, the concentration for a half-maximal effect (EC50) in the test with Human alphaherpesvirus 2 was above 50 µM; in the test with B16-F10 it was above 100 µM; in the test with Hepatitis B virus, above 20 µM; in the test on CCRF-CEM it was above 100 µM; with P388, above 100 µM; with Human alphaherpesvirus 1 it was above 50 µM. For the same molecule, the EC50 (in the test on L1210; in test [1]) was above 100 µM each time.
Regarding `Nc1ncn(C[C@H]2CO[C@H](CO)O2)c(=O)n1`, the IC50 in the test with MT2 was determined as 18 µM; with Vero it was 31 µM; in the test with HepG2 it was 17 µM. Also, the EC50 was above 50 µM in the test with Human alphaherpesvirus 2; 70 µM with B16-F10; 6.5 µM in the test on Hepatitis B virus; 30 µM in the test with CCRF-CEM; 65 µM in the test with P388; above 50 µM with Human alphaherpesvirus 1. Moreover, the figures for the EC50 (with L1210; in test [1]) were 70 µM and above 100 µM, respectively.
In turn, `Nc1nc2c(ncn2COCCO)c(=O)[nH]1` [ACYCLOVIR] had an IC50 in the test with Vero above 50 µM. The results for the concentration giving a half-maximal response (EC50) with Human alphaherpesvirus 2 and in the test on Human alphaherpesvirus 1 were 35 µM and 23 µM, respectively.
Turning to `Cc1cn([C@H]2C=C[C@@H](CO)O2)c(=O)[nH]c1=O` [STAVUDINE], in the test with MT2, the IC50 is above 100 µM. Besides, the EC50 in the test on Hepatitis B virus was above 20 µM; in test [1] it was 0.6 µM.
On to `Nc1ccn([C@H]2CC[C@@H](CO)O2)c(=O)n1` [ZALCITABINE], for which the EC50 with Hepatitis B virus was 2.3 µM. Further, the IC50 in the test on HepG2 was above 37 µM.
